Measured values published in the NIST ThermoML archive (doi:10.1021/acs.jced.9b00536).

Assay: wn = mass fraction of the nth substance listed
Conditions: 100 kPa, Liquid, Vibrating tube method

[Na+].[OH-] [sodium hydroxide] + O
mass density [kg/m3]
Conditions	303.15 K	313.15 K	323.15 K	333.15 K	343.15 K	353.15 K
w1 = 0.2	1213.8	1208	1202.1	1196.1	1190	1184.4
w1 = 0.21	1223.5	1219	1213	1206.8	1200.5	1194
w1 = 0.22	1236.2	1230.3	1224.3	1218.1	1212	1206.4
w1 = 0.23	1246.1	1240.2	1234.1	1227.9	1221.8	1216.2
w1 = 0.24	1256.6	1250.6	1244.4	1238.3	1232.2	1226.7
w1 = 0.25	1268	1262	1256	1249.5	1243	1236.5
w1 = 0.26	1279.4	1273.3	1267.1	1260.8	1254.6	1249
w1 = 0.27	1289.2	1283	1276.7	1270.3	1264.1	1258.3
w1 = 0.28	1299	1293.7	1287.4	1281	1274.7	1269.1
w1 = 0.29	1311	1304.5	1298.5	1292	1285.5	1278.5
w1 = 0.3	1321.7	1315.4	1308.9	1302.4	1295.9	1289.9
w1 = 0.31	1330.9	1324.5	1318	1311.4	1304.9	1298.7
w1 = 0.32	1343.4	1337	1330.4	1323.8	1317.2	1311.1
w1 = 0.33	1353.5	1347	1340.4	1333.7	1327.1	1321
w1 = 0.34	1364.3	1357.8	1351.1	1344.4	1337.8	1331.6
w1 = 0.35	1372.5	1365.9	1359.2	1352.5	1345.9	1339.8
w1 = 0.36	1381.8	1375.5	1369	1362.9	1356.8	1349.8
w1 = 0.37	1393.6	1386.8	1380	1373.2	1366.5	1360.2
w1 = 0.38	1403.3	1396.5	1389.6	1382.8	1376.1	1369.9
w1 = 0.39	1413.5	1406.5	1400	1393	1386	1379.5
w1 = 0.4	1423.3	1416.3	1409.3	1402.4	1395.6	1389.6
w1 = 0.41	1432.9	1425.9	1418.9	1412	1405.1	1398.7
w1 = 0.42	1443.2	1436.2	1429.2	1422.2	1415.4	1409
w1 = 0.43	1452.9	1445.8	1438.8	1431.8	1425	1418.6
w1 = 0.44	1460.9	1453.8	1446.7	1439.7	1432.8	1426.3
w1 = 0.45	1470.7	1463.5	1456.5	1449.5	1442.6	1436.2
w1 = 0.46	1479.6	1472.7	1465.9	1459	1451.5	1445.2
w1 = 0.47	1489.7	1482.5	1475.3	1468.3	1461.4	1454.8
w1 = 0.48	1499.9	1492.6	1485.4	1478.3	1471.4	1465
w1 = 0.49	1509.4	1502.1	1494.9	1487.9	1481	1474.6
w1 = 0.5	1518.4	1511.1	1503.9	1496.9	1490	1483.6
